The values that follow come from PMC10223356, “Tetrasubstituted Pyrrole Derivative Mimetics of Protein–Protein Interaction Hot-Spot Residues: A Promising Class of Anticancer Agents Targeting Melanoma Cells” (Molecules, 2023).

Series [1] in a line: Solubility assay in PBS by UV light scattering (precipitation point). The series is classed as physicochemical. The settings on record: for solubility at 1 min: PBS (phosphate-buffered saline), aqueous buffer, kinetic from dmso stock, PBS solution pH = 7.4, 37 °C, mean ± SEM (n = 3). How it is done: The solubility of all compounds was evaluated in a PBS solution (phosphate-buffered saline; Sigma-Aldrich, Merck KGaA, Darmstadt, Germany, pH = 7.4) by means of UV spectroscopy.
For each compound, the precipitation point was quantified measuring the increasing of the UV absorption of PBS in the range of 600–800 nm after successive additions of aliquots of a DMSO solution at specific concentration. Because of the absence of bands in the selected UV region, the increase in absorption is due to light scattering caused by the formation of particulate in the PBS. UV absorption data were graphically reported vs. μL of the added DMSO solution (x-axis), and the precipitation point was identified as the intersect point of the bilinear fitted curve. The x coordinate of the intersect point corresponded to the microlitres of DMSO added to PBS (1.4 mL) when the precipitation occurred, from which the concentration of the molecule in PBS at the precipitation point is readily calculated.
The solubility of each molecule in PBS was quantified measuring the UV scattering in the range of 600–800 nm (JASCO UV-530 spectrophotometer, equipped with ETC-505 T temperature controller). DMSO solutions of 1, 9a, 9b, 9c, 9d, 9e, 9f, ±10b, and nutlin-3a were used at a final concentration of 2.6 mM, whereas those of 9g, 9h, and 9i were used at 1.0 mM. A total of 1400 µL of degassed PBS was placed in a quartz cuvette (o.l. 0.5 cm), equilibrated 5 min at 37 °C, and then titrated by 7–10 successive additions of 0.5 µL or 0.3 µL from the DMSO solution. Each titration was performed without removing the cuvette from the UV cell and, after each addition, the solution was equilibrated 1 min a 37 °C under gently stirring before the acquisition of the UV data. For each molecule, the solubility was expressed as the mean ± SEM (n = 3).

The subject of series [2] is human colorectal carcinoma HCT-116 cells. The series can be described thus: Cell survival index (MTT + cell count) bioscreen, HCT-116. The series is classed as cell-based. The settings on record: HCT-116, 48 h, human colon cancer cell line, 48 h of incubation, mean ± SEM (n = 30). How it is done:
(§1) Cell growth inhibition activity of compounds 1, 9a–i, 10a,b, and the positive control nutlin-3a was evaluated following 48 h of incubation with increasing concentrations of the compounds (from 1.5 to 25 µM) in human cancer (A375 and HCT-116) and healthy (L6) cell lines. […] The evaluation of the “cell survival index” show a typical concentration-dependent sigmoid trend, achieving IC50 values in the low micromolar range (Figure S2).
(§2) Human epithelial melanoma A375 cells, human colorectal carcinoma HCT-116 cells, and normal rat L6 myoblast were grown in DMEM (Invitrogen, Paisley, UK) supplemented with 10% fetal bovine serum (FBS, Cambrex, Verviers, Belgium), L-glutamine (2 mM, Sigma, Milan, Italy), penicillin (100 units/mL, Sigma), and streptomycin (100 μg/mL, Sigma) and cultured in a humidified 5% carbon dioxide atmosphere at 37 °C, according to ATCC recommendations. A375 and HCT-116 were used as preclinical human cancer models in vitro, while rat L6 were used as control healthy cells.
(§3) The antiproliferative activity of 1, 9a–i, and 10a,b was investigated through the estimation of a “cell survival index”, arising from the combination of cell viability evaluation with cell counting, as previously reported. The cell survival index is calculated as the arithmetic mean between the percentage values derived from the MTT assay and the automated cell count. Cells were inoculated in 96-microwell culture plates at a density of 10^4 cells/well and allowed to grow for 24 h. The medium was then replaced with fresh medium and cells were treated for an additional 48 h with a range of concentrations (from 1.5 to 25 μM) of 1, 9a–i, and 10a,b. Using the same experimental procedure, cell cultures were also incubated with DMSO as negative controls (vehicle), as well as with cisplatin (cDDP) and nutlin-3a as positive controls for cytotoxic and antiproliferative effects, respectively. Cell viability was evaluated using the MTT assay procedure. Cell number was determined by TC20 automated cell counter (Bio-Rad, Milan, Italy), providing an accurate and reproducible total count of cells and a live/dead ratio in one step by a specific dye (trypan blue) exclusion assay. The calculation of the concentration required to inhibit the net increase in the cell number and viability by 50% (IC50) is based on plots of data (n = 6 for each experiment) and repeated five times (total n = 30). IC50 values were calculated from a dose–response curve by nonlinear regression using a curve-fitting program, GraphPad Prism 5.0, and are expressed as mean values ± SEM (n = 30) of five independent experiments.

The subject of a further series is normal rat L6 myoblast. As to the kind of experiment: Cell survival index (MTT + cell count) bioscreen, L6. The note with it: healthy rat myoblast cell line, 48 h of incubation, mean ± SEM (n = 30), read-out: L6 IC50. The format is cell-based. The method, then: as §1, §2, §3
Series [3] has as its system human epithelial melanoma A375 cells. As to the kind of experiment: Cell survival index (MTT + cell count) bioscreen, A375. The format is cell-based. The settings on record: for IC50: A-375, human melanoma cell line, 48 h of incubation, cell survival index, mean ± SEM (n = 30); for SI (selectivity index): SI = IC50 L6/IC50 A375. The method, then: as §1, §2, §3
On the set-up of series [4]: method as in PMID 23879262. The settings on record: 20 mM of PBS (pH = 7.4) containing 150 mM of KCl; cited from earlier work.
In series [5] the test system is human A375 melanoma cells. The series can be described thus: Apoptosis/Necrosis detection by fluorescence microscopy. The format is cell-based. The settings on record: A375 cells incubated with IC50 concentrations. An excerpt: In order to confirm the possible activation of apoptosis, we performed fluorescence experiments to simultaneously monitor apoptotic and/or necrotic cells as well as deepen the biological effects on A375 triggered by exposure to the most bioactive derivatives under investigation (Figure 5).
Indeed, in apoptosis, PS is transferred to the outer leaflet of the plasma membrane. As a general indicator of the initial/intermediate stages of programmed cell death, the PS appearance on the cell surface can be detected as an apoptotic hallmark. Even in this circumstance, the results are very similar to those obtained with nutlin-3a.
The evaluation of apoptosis and/or necrosis induction after treatments in vitro was investigated by using the Apoptosis/Necrosis Detection kit (ab176749, Abcam, Discovery Drive, Cambridge Biomedical Campus, Cambridge, UK), which is optimized to simultaneously detect cell apoptosis (green), necrosis (red), and healthy cells (blue) by fluorescence microscopy analysis. […] As a universal indicator of the initial/intermediates stages of cell apoptosis, the appearance of PS on the cell surface can be detected before cytomorphological changes are observed. Thus, the phosphatidylserine (PS) early apoptotic sensor has green fluorescence (Ex/Em = 490/525 nm) upon binding to membrane PS. […]

In brackets after ≈: the same amount, converted by molar mass.

`Cc1ccc(Cn2c(C(=O)NCc3cccc(Cl)c3)cc(C(=O)c3ccccc3)c2C)cc1` [compound 1, 4-benzoyl-N-[(3-chlorophenyl)methyl]-5-methyl-1-[(4-methylphenyl)methyl]-1H-pyrrole-2-carboxamide]: in series [1], the solubility (as a rule, how much of the substance goes into solution per volume) at 1 min was found to be 3.5 ± 0.1 µM (≈ 1.6 µg/mL). In series [2], the IC50 (as a rule, the concentration at which inhibition is half-maximal) stood at 41.4 ± 6 µM. Besides, the CC50 in the series on normal rat L6 myoblast turned out to be 42 ± 3 µM. Also, in series [3], the IC50 came out at 20 ± 4 µM and the “SI (selectivity index)” value amounted to 2.1. In series [4], the Solubility (usually how much of the substance goes into solution per volume) is reported as at most 6.8 µM.

For `Cc1c(C(=O)c2ccccc2)cc(C(=O)NCc2cccc(Cl)c2)n1Cc1ccc(F)cc1` [compound 9c, 4-Benzoyl-N-(3-chlorobenzyl)-1-(4-fluorobenzyl)-5-methyl-1H-pyrrole-2-carboxamide], the “Volume of DMSO solution added to PBS at the precipitation point” value in series [1] (DMSO solution 2.6 mM added to 1400 µL PBS) is reported as 2,1 µL. For the same compound, the solubility at 1 min in series [1] amounted to 3.9 ± 0.2 µM (≈ 1.8 µg/mL). Moreover, in series [2], the IC50 was determined as 55.9 ± 7 µM. The CC50 in the series with normal rat L6 myoblast is 35 ± 4 µM. Moreover, in series [3], the IC50 came to 13 ± 4 µM and the “SI (selectivity index)” value was 2.7. The “Activation of apoptosis (phosphatidylserine sensor, green fluorescence)” value in series [5] was “consistent activation of apoptosis”.

Consider `Cc1c(C(=O)c2ccccc2)cc(C(=O)NCc2cccc(Cl)c2)n1Cc1ccc(N)cc1` [compound 10a, 1-(4-aminobenzyl)-4-benzoyl-N-(3-chlorobenzyl)-5-methyl-1H-pyrrole-2-carboxamide], for which the solubility at 1 min in series [1] worked out at 10.5 ± 0.1 µM (≈ 4.81 µg/mL). Besides, in series [1] (PBS pH 7.4, ratio of DMSO solution volumes at the precipitation points), the “Solubility fold higher than that of 1” value worked out at 2.8 fold. The half-inhibitory concentration (IC50) in series [2] was 41.3 ± 6 µM. In addition, the CC50 in the series with normal rat L6 myoblast came out at 55 ± 7 µM. Also, in series [3], the IC50 was determined as 10 ± 4 µM and the “SI (selectivity index)” value was found to be 5.6. The “Activation of apoptosis (phosphatidylserine sensor, green fluorescence)” value in series [5] is listed as “consistent activation of apoptosis”.
